Measurements reported in patent publication US20090098050A1, “CALCIUM BINDING PEPTIDES” (THE REGENTS OF THE UNVERSITY OF CALIFORNIA, priority 2005, published 2009).

Assays:
[1] = Tissue specificity of binding in demineralized and nondemineralized teeth (CLSM); design: species or system human; conditions: 12.5 μM labeled peptide
Experimental: FIG. 6: Tissue specificity of 8DSS peptide binding and its dependence on mineralization state. Demineralized and nondemineralized human teeth samples were incubated with 12.5 μM 5(6)-carboxyfluorescein-labeled 8DSS peptide as described in Example 9, and sections were rinsed and imaged by CLSM. […] The dentin-enamel junction, labeled DEJ, is clearly demarcated in both cases.
Sagitally sectioned human teeth were either demineralized by incubation with 0.5 M EDTA for 15 minutes or left nondemineralized. Samples were then incubated for ten minutes in a solution of 12.5 μM 5(6)-carboxyfluorescein-labeled 8DSS, 10 mM NaCl, and 50 mM HEPES, pH 7.0. Control samples were incubated without peptide. Sections were then rinsed and imaged by CLSM using identical laser and camera settings.

[2] = Tissue specific binding of DSS peptides and variants in human teeth (CLSM); conditions: 12.5 μM labeled peptide
Experimental: FIG. 8: Fluorescence micrographs showing tissue specificity in the binding of DSS peptides and variants. Adult human teeth were exposed to 12.5 μM 5(6)-carboxyfluorescein-labeled peptide without demineralization, washed extensively, and imaged by CLSM. For each section, multiple scans were collected and assembled in an automated mode to generate panels of images representing an area of 13×13 mm, sufficient in most cases to encompass the whole section. The peptides used for each section are labeled beneath each panel, and within each panel the tooth is oriented with the root toward the top of the image and the crown toward the bottom. Tissue layers are labeled as follows: RTD=Root Tip Dentin; CPD=Circumpulpal Dentin; MD=Mantle Dentin; P=Pulp Cavity Wall; DEJ=Dentin-Enamel Junction; E=Enamel; BE=Basal Enamel; CE=Cortical Enamel; CL=Carious Lesion; PB=Periodontal Bone.
In order to investigate the tissue specificity of DSS peptide binding to tooth tissue, sections of human teeth were exposed to DSS peptides and variants, then imaged by CLSM as described in Example 2. The peptides utilized for these experiments were 8DSS, 8ASS, 8DAA, 8NAA, 4DSS, 4ESS, 4NSS, 4DTT, 4ETT, 4NTT, and 6DSS. Sagittal sections of human teeth extracted during normal clinical practice were polished and then incubated for ten minutes in a solution of the appropriate 5(6) carboxyfluorescein-labeled peptide (12.5 μM) containing 10 mM NaCl and 50 mM HEPES, pH 7.0. Control samples were prepared without peptide. Samples were washed extensively after treatment and imaged by CLSM using blue laser illumination (λ=488 nm) and a FITC emission filter, with identical camera and microscope settings for each sample. For each section, multiple scans were collected and assembled in an automated mode to generate panels of images representing an area of 13×13 mm, sufficient in most cases to encompass the whole section. […] Significant binding was also seen to the edges of the pulp cavity.

[3] = Binding to inorganic phosphate precipitates (relative fluorescence); conditions: 12.5 μM labeled peptide, ten minutes, about 0.5% (w/v) salt
Experimental: FIG. 10: Relative levels of 8DSS peptide binding to various inorganic phosphate precipitates. 100 mM sodium phosphate (pH 7.5) was combined with 100 mM solutions of MgCl2, CaCl2, MnCl2, CoCl2, NiSO4, CuSO4, and SrCl2, respectively. Suspensions were made of each phosphate salt at a concentration of approximately 0.5% (w/v) in the presence of 12.5 μM 5(6)-carboxyfluorescein-labeled 8DSS peptide. After a ten minute incubation at room temperature, samples were washed and imaged by fluorescence microscopy. The intensity of the fluorescent staining of the inorganic phosphate particles in each sample was assessed by measuring the pixel intensity values using the GIMP (www.gimp.org) as described in Example 11. Normalized fluorescence values are plotted here. […] On the Y-axis, the relative fluorescence intensity values are plotted.
Phosphate salts of magnesium, calcium, manganese, cobalt, nickel, copper, and strontium were prepared by combining 100 mM sodium phosphate (pH 7.5) with 100 mM solutions of the chloride or sulfate salts of the aforementioned metal ions (MgCl2, CaCl2, MnCl2, CoCl2, NiSO4, CuSO4, and SrCl2, respectively). […] Each sample was incubated for ten minutes at room temperature, then washed twice with a solution of 50 mM HEPES pH 7.0 and 10 mM NaCl, resuspended in the same buffer, and imaged by fluorescence microscopy. […]

[4] = Accumulation of calcium phosphate by immobilized peptide on streptavidin beads; conditions: biotin-conjugated peptide on beads, PBS+1 mM CaCl2+1 mM NaHPO4, twelve days
Experimental: FIG. 3: Interaction of immobilized 8DSS peptide with CaHPO4. Streptavidin-coated polystyrene beads were incubated with biotin-conjugated 8DSS (A and C) or unconjugated biotin (B) and (D). Beads were washed and incubated in a solution of PBS+1 mM CaCl2+1 mM NaHPO4 for twelve days prior to imaging. A. Brightfield micrographs of aggregates of amorphous calcium phosphate that accumulated around DSS-coated beads. All calcium phosphate aggregates of significant size were associated with one or more beads. B. Brightfield image of representative biotin-blocked beads (no DSS peptide). No significant amount of precipitate was associated with these beads. C. Phase-contrast micrograph of a DSS-coated bead with a more ordered accretion of calcium phosphate around its exterior (note the spherical center of the object). These objects were not seen in control samples (biotin-blocked, no DSS peptide), as illustrated in (D). Scale Bars=4 μm. Streptavidin-coated polystyrene beads with an average diameter of 4 μm (Spherotech P.L.C.) were incubated with either biotin-conjugated 8DSS peptide or unconjugated biotin. Beads were washed with PBS to remove unbound peptide (or unbound biotin, in the case of the control beads) and incubated in a solution of PBS+1 mM CaCl2+1 mM NaHPO4 for twelve days prior to imaging. […] All calcium phosphate aggregates of significant size were associated with one or more beads. […]

## 8DSS: peptide containing eight Asp-Ser-Ser (DSS) repeats, SEQ ID NO:15 (DSSDSSDSSDSSDSSDSSDSSDSS; calcium binding peptide containing eight DSS repeats, 8DSS)
[1]; demineralized sample
  Binding pattern in demineralized tooth tissue: Primary binding is to the demineralized enamel (E) with little binding to the dentin (D)
[1]; nondemineralized sample
  Binding pattern in nondemineralized tooth tissue: primary binding is to the dentin (D) with little or no binding to the enamel (E)
[2]; nondemineralized teeth
  Tissue binding pattern in healthy tooth section: bound primarily to the mantle dentin
[2]; ten minutes, identical settings
  Level of binding (staining) to tooth surfaces: greatest levels of staining
[3]
  Fluorescent staining of CaHPO4 and SrHPO4 aggregates: highest levels of staining
  Fluorescent staining of NiHPO4 aggregates: small level of staining
[4]
  Calcium phosphate accumulation around peptide-coated beads: incorporated into large aggregates of precipitated amorphous calcium phosphate
